Assay results taken from publication PMC10477891, “Celastrol Combats Methicillin‐Resistant Staphylococcus aureus by Targeting Δ^1‐Pyrroline‐5‐Carboxylate Dehydrogenase” (Advanced Science, 2023).

Assays:
[1] = biological target: T1, P5CDH (Δ1-pyrroline-5-carboxylate dehydrogenase) (Staphylococcus aureus, UniProt Q2FDV3); assay: P5CDH activity kit (FT-M52211); assay type: biochemical
T1 construct: gene rocA
T1 sequence (Q2FDV3 1-514): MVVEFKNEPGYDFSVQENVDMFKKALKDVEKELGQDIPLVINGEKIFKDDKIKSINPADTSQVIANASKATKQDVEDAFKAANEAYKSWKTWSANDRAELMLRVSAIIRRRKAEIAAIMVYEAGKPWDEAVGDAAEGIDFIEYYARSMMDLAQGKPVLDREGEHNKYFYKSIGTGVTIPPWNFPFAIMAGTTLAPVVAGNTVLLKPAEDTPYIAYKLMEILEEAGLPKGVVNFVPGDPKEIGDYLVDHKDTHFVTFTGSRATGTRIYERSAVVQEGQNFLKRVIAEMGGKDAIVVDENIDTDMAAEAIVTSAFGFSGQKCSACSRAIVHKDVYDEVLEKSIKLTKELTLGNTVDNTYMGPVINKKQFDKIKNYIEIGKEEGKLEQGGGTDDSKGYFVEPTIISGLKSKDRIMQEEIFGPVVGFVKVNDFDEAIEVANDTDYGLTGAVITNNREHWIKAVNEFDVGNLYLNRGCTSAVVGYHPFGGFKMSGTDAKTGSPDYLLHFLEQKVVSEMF

[2] = biological target: T1, P5CDH (Δ1-pyrroline-5-carboxylate dehydrogenase); assay: bio-layer interferometry (Octet NTA, immobilised P5CDH); assay type: binding

CC1=C(O)C(=O)C=C2C1=CC=C1[C@@]2(C)CC[C@@]2(C)[C@@H]3C[C@](C)(C(=O)O)CC[C@]3(C)CC[C@]12C [celastrol]
IC50 [1]: 10.9 µM | Kd [2]: 55 µM
